Experimental data reported in US12421206B2, “Aryl-n-aryl derivatives for treating a RNA virus infection” (ABIVAX, priority 2018, dated 2025).

Each molecule was assayed on RSV A2 (assay: RSV inhibition (cytopathic effect inhibition) using Viral ToxGlo assay in HEp-2 cells). Conditions: human respiratory syncytial virus, RSV A2, MOI 0.5, HEp-2 cells, 72 h p.i.
Type: cell-based
Summary of the method: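 HEp-2 cells in EMEM with 2% FBS were infected with RSV A2 at MOI 0.5 immediately after compound (≤1% DMSO) and incubated 72 h at 37 °C. Viral ToxGlo luminescence gave % cytopathic effect inhibition versus virus control, plus cytotoxicity versus cell control; EC50 derived from dose-response.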

Point of comparison: Cc1cc(OCc2ccccn2)ccc1Nc1cccc(C(=O)NCCC2CC2)c1 [Compound 45, N-(2-cyclopropylethyl)-3-((2-methyl-4-(pyridin-2-ylmethoxy)phenyl)amino)benzamide], EC50 280 nM. Against it:
- O=C(NCCC1CCCCC1)c1cccc(Nc2ccc(OCc3ccccn3)cc2)c1 [Compound 38, N-(2-cyclohexylethyl)-3-((4-(pyridin-2-ylmethoxy)phenyl)amino)benzamide] — within 1.5-fold, 281 nM
- Cc1cc(OCc2ccccn2)ccc1Nc1cccc(C(=O)NCCC2CCC2)c1 [Compound 46, N-(2-cyclobutylethyl)-3-((2-methyl-4-(pyridin-2-ylmethoxy)phenyl)amino)benzamide] — within 1.5-fold, 199 nM
- CCCC(C)NC(=O)c1cccc(Nc2ccc(OCc3ccccn3)cc2)c1 (centres unmarked) [Compound 64, N-(pentan-2-yl)-3-((4-(pyridin-2-ylmethoxy)phenyl)amino)benzamide] — within 1.5-fold, 341 nM
- Cc1cc(OCc2ccccn2)ccc1Nc1cccc(NC(=O)NCCC(C)C)c1 [Compound 68, 1-isopentyl-3-(3-((2-methyl-4-(pyridin-2-ylmethoxy)phenyl)amino)phenyl)urea] — 1.9-fold lower, 144 nM
